Literature values, collected in patent US10306887B2, “Composition and methods for modulation of the octopamine receptor and its homologs” (THE BOARD OF REGENTS OF THE UNIVERSITY OF TEXAS SYSTEMS, priority 2014, dated 2019).
Entries after “also recorded” stand apart in the source; their conditions may differ.

What was measured:
[1] = system: mated tdc2 or tβh females
[2] = system: dissected reproductive system

NCC(O)c1ccc(O)cc1 (stereo not drawn) [OA, β,4-dihydroxyphenethylamine]
egg-laying ([1]; OA feeding, mated tdc2 or tβh mutant females): sufficient to induce egg-laying
sterility ([1]; feeding OA to mated tβh mutant females): rescues sterility
muscle contractions in the ovary ([2]; OA applied to dissected reproductive system, ovary): enhances muscle contractions in the ovary
muscle contractions in the oviduct ([2]; OA applied to reproductive system, oviduct): inhibits them in the oviduct; also recorded: relaxes the oviduct muscle
